Experimental findings from publication PMC10397248, “A novel N^6-Deoxyadenine methyltransferase METL-9 modulates C. elegans immunity via dichotomous mechanisms” (Cell Research, 2023) are described below.

Positions count from the first letter of the chain named.

Data set [1] has as its target mouse Mettl9 (recombinant GST-Mettl9) (Mus musculus, UniProt Q9EPL4). Description: in vitro DNA 6mA methylation, LC-MS/MS. Format: biochemical. Particulars: biotin-ssDNA or bubbled DNA with GAGG motif 2 uM, SAM or d3-SAM 0.1 mM (which one only in supplement), pH 7.5, 2.5 mM MgCl2, 25 °C; methyl donor.
Data set [2] addresses T1, METL-9 (recombinant GST-METL-9) (Caenorhabditis elegans, UniProt Q22123, N172K/D274G).
T1 sequence (Q22123 1-311 N172K/D274G): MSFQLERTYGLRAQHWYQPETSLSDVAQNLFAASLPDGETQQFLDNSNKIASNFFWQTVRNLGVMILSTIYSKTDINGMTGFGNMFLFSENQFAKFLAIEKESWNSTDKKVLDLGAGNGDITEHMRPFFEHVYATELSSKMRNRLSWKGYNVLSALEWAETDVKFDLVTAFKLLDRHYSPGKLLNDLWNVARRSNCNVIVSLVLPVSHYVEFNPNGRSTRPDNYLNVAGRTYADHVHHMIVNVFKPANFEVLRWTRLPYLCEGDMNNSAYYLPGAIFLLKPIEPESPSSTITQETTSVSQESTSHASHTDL
Briefly: in vitro DNA 6mA methylation, LC-MS/MS. Type of data set: biochemical. Particulars: biotin-ssDNA oligo 2 uM, d3-SAM 0.1 mM, HEPES pH 7.5, 2.5 mM MgCl2, 80 mM KCl, 20 °C; methyl donor; labelled compound.

Substrate in the data set “purified protein”: C[S+](CC[C@H](N)C(=O)O)C[C@H]1O[C@@H](n2cnc3c(N)ncnc32)[C@H](O)[C@@H]1O
Briefly: purified protein. Particulars: ssDNA oligo 5 uM, varied d3-SAM, HEPES pH 7.5, 2.5 mM MgCl2, 80 mM KCl, 20 °C, methyl donor, labelled compound.

Chain of mouse Mettl9 (recombinant GST-Mettl9) (Q9EPL4 whole entry): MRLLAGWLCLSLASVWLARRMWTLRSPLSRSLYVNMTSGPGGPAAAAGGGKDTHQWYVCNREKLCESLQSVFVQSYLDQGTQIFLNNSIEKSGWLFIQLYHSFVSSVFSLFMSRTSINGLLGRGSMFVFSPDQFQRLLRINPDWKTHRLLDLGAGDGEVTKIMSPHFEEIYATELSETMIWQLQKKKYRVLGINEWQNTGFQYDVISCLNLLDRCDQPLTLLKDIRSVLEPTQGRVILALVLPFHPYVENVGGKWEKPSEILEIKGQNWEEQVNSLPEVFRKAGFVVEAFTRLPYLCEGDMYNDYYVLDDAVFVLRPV

Turning to `C[S+](CC[C@H](N)C(=O)O)C[C@H]1O[C@@H](n2cnc3c(N)ncnc32)[C@H](O)[C@@H]1O` (stereo partly shown) [SAM], in data set [1], the “in vitro DNA 6mA methylation, LC-MS/MS” value was “mouse Mettl9 protein showed 6mA methyltransferase activity towards ssDNA and bubbled DNA”. `C[S+](CC[C@H](N)C(=O)O)C[C@H]1O[C@@H](n2cnc3c(N)ncnc32)[C@H](O)[C@@H]1O` (stereo partly shown) [d3-SAM]: in data set [2], the “in vitro DNA 6mA methylation, LC-MS/MS” value is given as “double mutant (M8 + M10, metl-9^mut) almost completely abolished the 6mA methyltransferase activity of METL-9”.

B1: METL-9 (recombinant GST-METL-9) (Caenorhabditis elegans) (protein)
chain: T1 sequence (Q22123 1-311 N172K/D274G) with K172N, G274D
The Km is the substrate concentration at which the rate is half of its maximum. Broadly, the kcat is the maximal rate divided by the concentration of active sites. B1: in the data set “purified protein”, the Km came to 37.69 ± 3.75 µM and the kcat came out at 0.00131 ± 5.83e-05 s⁻¹.
